Results taken from paper PMC10364322, “Evaluation of chronic drug-induced electrophysiological and cytotoxic effects using human-induced pluripotent stem cell-derived cardiomyocytes (hiPSC-CMs)” (Frontiers in Pharmacology, 2023).
Read-outs that look alike come from different tables or passages of the source.

Tested on: hiPSC-CMs (iCell-Cardiomyocytes^2)
Method in brief: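 Spontaneous field potentials and impedance recorded by MEA at 37°C, 5% CO2 in hiPSC-CM monolayers (50 K/well, fibronectin-coated), 5-min baseline before compound; final DMSO 0.1%. Values are percent change from baseline, mean ± SD, compared with DMSO by Wilcoxon-Mann Whitney, interpreted against DMSO tolerance intervals.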

C[C@H](CS)C(=O)N1CCC[C@H]1C(=O)O [Captopril]
BR (beating rate), % change from baseline (1 µM, 2h): 4±4% | FPD (field-potential duration), % change from baseline (1 µM, 2h): 0±2.5% | FPDc (field-potential duration corrected by beat-rate), % change from baseline (1 µM, 2h): 0.8±1.8% | BR (beating rate), % change from baseline (1 µM, 24h): 1±5% | FPD (field-potential duration), % change from baseline (1 µM, 24h): 5±5.9% | FPDc (field-potential duration corrected by beat-rate), % change from baseline (1 µM, 24h): 5.1±4.4% | BR (beating rate), % change from baseline (1 µM, 48h): -7±4% | FPD (field-potential duration), % change from baseline (1 µM, 48h): 11.5±3.8% | FPDc (field-potential duration corrected by beat-rate), % change from baseline (1 µM, 48h): 8.8±2.5% | BR (beating rate), % change from baseline (1 µM, 72h): -10±1% | FPD (field-potential duration), % change from baseline (1 µM, 72h): 16±2.7% | FPDc (field-potential duration corrected by beat-rate), % change from baseline (1 µM, 72h): 11.9±2.1% | BR (beating rate), % change from baseline (1 µM, 96h): -15±4% | FPD (field-potential duration), % change from baseline (1 µM, 96h): 22±4.6% | FPDc (field-potential duration corrected by beat-rate), % change from baseline (1 µM, 96h): 15.1±3% | BR (beating rate), % change from baseline (3 µM, 72h): -9±1% | FPD (field-potential duration), % change from baseline (3 µM, 72h): 12±0.8% | FPDc (field-potential duration corrected by beat-rate), % change from baseline (3 µM, 72h): 8.6±0.6% | BR (beating rate), % change from baseline (3 µM, 96h): -18±2% | FPD (field-potential duration), % change from baseline (3 µM, 96h): 20.9±1.6% | FPDc (field-potential duration corrected by beat-rate), % change from baseline (3 µM, 96h): 13.5±1.6% | BR (beating rate), % change from baseline (3 µM, 2h): 2±2% | FPD (field-potential duration), % change from baseline (3 µM, 2h): 0.3±1.9% | FPDc (field-potential duration corrected by beat-rate), % change from baseline (3 µM, 2h): 1.1±1.6% | BR (beating rate), % change from baseline (3 µM, 24h): 1±3% | FPD (field-potential duration), % change from baseline (3 µM, 24h): 4.3±0.8% | FPDc (field-potential duration corrected by beat-rate), % change from baseline (3 µM, 24h): 4.6±1.6% | BR (beating rate), % change from baseline (3 µM, 48h): -7±2% | FPD (field-potential duration), % change from baseline (3 µM, 48h): 10.9±2.8% | FPDc (field-potential duration corrected by beat-rate), % change from baseline (3 µM, 48h): 8.2±1.8% | BR (beating rate), % change from baseline (10 µM, 2h): 2±2% | FPD (field-potential duration), % change from baseline (10 µM, 2h): 0.3±1.7% | FPDc (field-potential duration corrected by beat-rate), % change from baseline (10 µM, 2h): 1±1.6% | BR (beating rate), % change from baseline (10 µM, 24h): 1±3% | FPD (field-potential duration), % change from baseline (10 µM, 24h): 5.3±3.7% | FPDc (field-potential duration corrected by beat-rate), % change from baseline (10 µM, 24h): 5.7±2.8% | BR (beating rate), % change from baseline (10 µM, 48h): -7±3% | FPD (field-potential duration), % change from baseline (10 µM, 48h): 13.1±5.3% | FPDc (field-potential duration corrected by beat-rate), % change from baseline (10 µM, 48h): 10.3±4.5% | BR (beating rate), % change from baseline (10 µM, 72h): -10±1% | FPD (field-potential duration), % change from baseline (10 µM, 72h): 14.8±5.3% | FPDc (field-potential duration corrected by beat-rate), % change from baseline (10 µM, 72h): 11.2±4.9% | BR (beating rate), % change from baseline (10 µM, 96h): -17±1% | FPD (field-potential duration), % change from baseline (10 µM, 96h): 23.4±6.5% | FPDc (field-potential duration corrected by beat-rate), % change from baseline (10 µM, 96h): 16±5.7% | BR (beating rate), % change from baseline (30 µM, 2h): 2±3% | FPD (field-potential duration), % change from baseline (30 µM, 2h): 3.4±1.3% | FPDc (field-potential duration corrected by beat-rate), % change from baseline (30 µM, 2h): 4±1.3% | BR (beating rate), % change from baseline (30 µM, 24h): 1±3% | FPD (field-potential duration), % change from baseline (30 µM, 24h): 7.4±4.1% | FPDc (field-potential duration corrected by beat-rate), % change from baseline (30 µM, 24h): 7.7±2.9% | BR (beating rate), % change from baseline (30 µM, 48h): -7±1% | FPD (field-potential duration), % change from baseline (30 µM, 48h): 13.9±3.1% | FPDc (field-potential duration corrected by beat-rate), % change from baseline (30 µM, 48h): 11.4±2.7% | BR (beating rate), % change from baseline (30 µM, 72h): -9±2% | FPD (field-potential duration), % change from baseline (30 µM, 72h): 15.6±2% | FPDc (field-potential duration corrected by beat-rate), % change from baseline (30 µM, 72h): 12.1±2.1% | BR (beating rate), % change from baseline (30 µM, 96h): -16±2% | FPD (field-potential duration), % change from baseline (30 µM, 96h): 23.3±2.4% | FPDc (field-potential duration corrected by beat-rate), % change from baseline (30 µM, 96h): 16±2.1% | cessation of beating, flat T-wave or arrhythmic-like events (all concentrations tested, up to 96 h): no cessation of beating, flat T-wave or arrhythmic-like events were detected
